{"source": "patent US8273726B2", "about": "“Compositions for treating and/or preventing diseases characterized by the presence of metal ions” (Brandeis University, priority 2002, dated 2012)", "key": {"A-beta1-42 peptide [1]": {"tested_on": "A-beta1-42 peptide", "format": "biochemical, human"}, "Caco-2 cells [2]": {"tested_on": "Caco-2 cells"}, "A-beta1-42 peptide [3]": {"target": "T1, A-beta1-42 peptide (Homo sapiens, UniProt P05067)", "T1 sequence (P05067 672-713)": "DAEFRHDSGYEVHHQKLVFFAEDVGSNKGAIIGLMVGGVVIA", "format": "biochemical"}, "[4]": {"tested_on": "peptide 1 (A-beta1-42 peptide)", "test": "CD titration of iron-complexed peptide 1 with silanes (Example 9)", "format": "biochemical, human"}, "NF-M17": {"tested_on": "NF-M17", "test": "CD titration of NF-M17 peptide/aluminum with silicon compounds (Example 1)", "format": "biochemical, human"}, "Caco-2 cells [5]": {"tested_on": "Caco-2 cells", "conditions": "for Permeation Coefficient (cm/sec) Mean ± SD, where applicable: human"}, "A-beta antigen": {"tested_on": "A-beta antigen", "test": "Slot blot of A-beta antigen extracted from Alzheimer's brain tissue sections (Example 8)", "design": "species or system human"}, "in vitro": {"test": "in vitro", "conditions": "human, Caco-2"}, "A-beta1-42 peptide [6]": {"target": "T1, A-beta1-42 peptide", "format": "biochemical", "remark": "listed apart in the source"}}, "note": "“Also recorded” adds a separate entry of the source. Where a name gives a salt, the structure may show the parent alone. Read-outs that look alike come from different tables or passages of the source."}
{"compound": "C1CC[Si]2(CCCCO2)OC1", "note": "[SDSU, 1,7-dioxa-6-sila-spiro[5.5]undecane]", "values": [{"measurement": "restoration of the original CD spectrum of A-beta1-42 peptide after exposure to aluminum", "setting": "A-beta1-42 peptide [1]", "result": "at least partially restored"}, {"measurement": "transport across Caco-2 cells", "setting": "Caco-2 cells [2]", "result": "significant amount of transport"}]}
{"compound": "Aluminum", "values": [{"measurement": "effect of the metal on the A-beta1-42 CD spectrum", "setting": "A-beta1-42 peptide [3]", "result": "decreases with higher concentrations; also recorded: strong effects"}]}
{"compound": "C[Si](O)(O)CCCC#N", "note": "[3f, (dihydroxy)methyl(3-cyanopropyl)silane]", "values": [{"measurement": "return of the helical CD spectrum on titration of iron-complexed peptide 1", "setting": "[4]", "result": "dosage effect is evident, but non-linear"}, {"measurement": "titration point showing the greatest degree of recovery", "setting": "[4]", "result": 0.25, "unit": "eq."}]}
{"compound": "O[Si](O)(c1ccccc1)c1ccccc1", "note": "[DPSD, diphenylsilandiol]", "values": [{"measurement": "Restore original spectra?", "setting": "NF-M17; CD spectrum of NF-M17 with 8 equivalents of aluminum, in TFE", "result": "(DMSO interfered with spectra)"}, {"measurement": "restoration of the CD spectrum of NF-M17/aluminum to its original shape", "setting": "NF-M17; NF-M17 with 8 equivalents of aluminum, in TFE", "result": "did not restore"}]}
{"compound": "CC(C)[Si](Cl)(Cl)C(C)C", "note": "[DCDIPS, dichlorodiisopropylsilane]", "values": [{"measurement": "Restore original spectra?", "setting": "NF-M17", "result": "Yes"}, {"measurement": "equivalents at which the CD spectrum of NF-M17/aluminum was restored to its original shape", "setting": "NF-M17", "result": "around 32 equivalents"}, {"measurement": "restoration of the original CD spectrum of A-beta1-42 peptide after exposure to aluminum", "setting": "A-beta1-42 peptide [1]", "result": "at least partially restored"}]}
{"compound": "CCCCCCCC[Si](Cl)(Cl)Cl", "note": "[OTCS, n-octyltrichlorosilane]", "values": [{"measurement": "Restore original spectra?", "setting": "NF-M17", "result": "(gelation of OTCS)"}, {"measurement": "restoration of the CD spectrum of NF-M17/aluminum to its original shape", "setting": "NF-M17", "result": "did not restore"}]}
{"compound": "trihydroxysilylmethyl phosphonate [TSMP]", "values": [{"measurement": "permeation of Caco-2 cells relative to mannitol", "setting": "Caco-2 cells [5]; Caco-2", "result": "slower permeation than mannitol"}]}
{"compound": "[Fe+2]", "note": "[iron (II)]", "values": [{"measurement": "effect of the metal on the A-beta1-42 CD spectrum", "setting": "A-beta1-42 peptide [3]", "result": "minor or no effects"}]}
{"compound": "triethoxysilylbutyronitrile [TESB]", "values": [{"measurement": "restoration of the original CD spectrum of A-beta1-42 peptide after exposure to aluminum", "setting": "A-beta1-42 peptide [1]", "result": "at least partially restored; also recorded: reverses aluminum-induced denaturation"}, {"measurement": "relative transport across Caco-2 cells (FIG. 29B vs FIG. 29A)", "setting": "Caco-2 cells [2]", "result": "more transport"}, {"measurement": "transport across Caco-2 cells", "setting": "Caco-2 cells [2]", "result": "significant amount of transport"}, {"measurement": "permeation of Caco-2 cells relative to mannitol", "setting": "Caco-2 cells [5]; Caco-2", "result": "at least four times greater"}, {"measurement": "Permeation Coefficient (cm/sec) Mean ± SD, where applicable", "setting": "Caco-2 cells [5]; Caco-2", "result": "3.0 × 10^−5 (n = 2) cm/sec"}]}
{"compound": "CC[Si](O)(CC)Cc1ccccc1", "note": "[BDS, benzyldiethylsilanol]", "values": [{"measurement": "Restore original spectra?", "setting": "NF-M17", "result": "No"}, {"measurement": "restoration of the CD spectrum of NF-M17/aluminum to its original shape", "setting": "NF-M17", "result": "did not restore"}]}
{"compound": "NCCC[Si](O)(O)O", "note": "[APST, 3-aminopropylsilantriol]", "values": [{"measurement": "Restore original spectra?", "setting": "NF-M17", "result": "Yes"}, {"measurement": "chelation of aluminum compared to sodium orthosilicate", "setting": "NF-M17", "result": "improved chelation"}, {"measurement": "restoration of the CD spectrum of NF-M17/aluminum to its original shape", "setting": "NF-M17", "result": "able to restore"}]}
{"compound": "Cl", "note": "[HCl, hydrochloric acid, reference compound]", "values": [{"measurement": "extraction of A-beta antigen from Alzheimer's tissue", "setting": "A-beta antigen", "result": "no detectable antigen"}, {"measurement": "reversing the helix-coil transition by acid", "setting": "[4]", "result": "effective for reversing the helix-coil transition"}]}
{"compound": "CCCCCC[Si](C)(Cl)Cl", "note": "[HMDS, hexylmethyldichlorosilane]", "values": [{"measurement": "Restore original spectra?", "setting": "NF-M17", "result": "Yes"}, {"measurement": "equivalents at which the CD spectrum of NF-M17/aluminum was restored to its original shape", "setting": "NF-M17", "result": "around 32 equivalents"}, {"measurement": "restoration of the original CD spectrum of A-beta1-42 peptide after exposure to aluminum", "setting": "A-beta1-42 peptide [1]", "result": "at least partially restored"}]}
{"compound": "triethoxysilylpropionitrile [TESP]", "values": [{"measurement": "restoration of the original CD spectrum of A-beta1-42 peptide after exposure to aluminum", "setting": "A-beta1-42 peptide [1]", "result": "at least partially restored"}]}
{"compound": "CC[Si](Cl)(Cl)CC", "note": "[DCDES, dichlorodiethylsilane]", "values": [{"measurement": "Restore original spectra?", "setting": "NF-M17", "result": "Yes"}, {"measurement": "equivalents at which the CD spectrum of NF-M17/aluminum was restored to its original shape", "setting": "NF-M17", "result": "around 32 equivalents"}, {"measurement": "restoration of the original CD spectrum of A-beta1-42 peptide after exposure to aluminum", "setting": "A-beta1-42 peptide [1]", "result": "at least partially restored"}]}
{"compound": "[Cu]", "note": "[copper]", "values": [{"measurement": "effect of the metal on the A-beta1-42 CD spectrum", "setting": "A-beta1-42 peptide [3]", "result": "strong effects"}]}
{"compound": "CC(C#N)C[Si](C)(Cl)Cl", "note": "(centres unmarked) [CPMS, 2-cyanopropylmethyldichlorosilane]", "values": [{"measurement": "Total Extracted", "setting": "A-beta antigen", "result": 6.0, "unit": "fmol"}, {"measurement": "extraction of A-beta antigen from Alzheimer's tissue", "setting": "A-beta antigen", "result": "no detectable antigen"}, {"measurement": "Papp A→B", "setting": "in vitro", "result": 6.1, "unit": "×10⁻⁶ cm/s"}]}
{"compound": "CCC(C#N)C[Si](C)(Cl)Cl", "note": "(centres unmarked) [CBMS, 2-cyanobutylmethyldichlorosilane]", "values": [{"measurement": "Total Extracted", "setting": "A-beta antigen", "result": 5.2, "unit": "fmol"}, {"measurement": "Papp A→B", "setting": "in vitro", "result": 6.5, "unit": "×10⁻⁶ cm/s"}]}
{"compound": "N#CCCC[Si](Cl)(Cl)Cl", "note": "[CPTCS, 3-cyanopropyltrichlorosilane]", "values": [{"measurement": "Restore original spectra?", "setting": "NF-M17", "result": "Yes"}, {"measurement": "equivalents at which the CD spectrum of NF-M17/aluminum was restored to its original shape", "setting": "NF-M17", "result": "around 32 equivalents"}, {"measurement": "reversal of the effect of aluminum on the CD spectrum of A-beta1-42", "setting": "A-beta1-42 peptide [1]", "result": "Moderate reversal; also recorded: almost full reversal"}]}
{"compound": "CC(=O)O[Si](OC(C)=O)(OC(C)=O)OC(C)=O", "note": "[TAS, tetraacetooxysilane]", "values": [{"measurement": "restoration of the original CD spectrum of A-beta1-42 peptide after exposure to aluminum", "setting": "A-beta1-42 peptide [1]", "result": "at least partially restored"}]}
{"compound": "C[Si](Cl)(Cl)c1ccccc1", "note": "[MPDS, methylphenyldichlorosilane]", "values": [{"measurement": "Restore original spectra?", "setting": "NF-M17", "result": "Yes"}, {"measurement": "equivalents at which the CD spectrum of NF-M17/aluminum was restored to its original shape", "setting": "NF-M17", "result": "around 32 equivalents"}]}
{"compound": "(dichloro)methylsilylbutyronitrile [DCMSBN]", "values": [{"measurement": "Restore original spectra?", "setting": "NF-M17", "result": "Yes"}, {"measurement": "equivalents at which the CD spectrum of NF-M17/aluminum was restored to its original shape", "setting": "NF-M17", "result": "around 32 equivalents"}, {"measurement": "restoration of the original CD spectrum of A-beta1-42 peptide after exposure to aluminum", "setting": "A-beta1-42 peptide [1]", "result": "at least partially restored"}, {"measurement": "relative transport across Caco-2 cells (FIG. 29B vs FIG. 29A)", "setting": "Caco-2 cells [2]", "result": "more transport"}, {"measurement": "transport across Caco-2 cells", "setting": "Caco-2 cells [2]", "result": "significant amount of transport"}]}
{"compound": "C[Si](Cl)(Cl)CCC#N", "note": "[CEMS, 2-cyanoethylmethyldichlorosilane]", "values": [{"measurement": "protection of the helical structure of A-beta1-42 against amyloid formation by aluminum (III)", "setting": "A-beta1-42 peptide [6]", "result": "protection of the helical structure"}, {"measurement": "Papp A→B", "setting": "in vitro", "result": 4.6, "unit": "×10⁻⁶ cm/s"}]}
{"compound": "[Zn]", "note": "[Zinc]", "values": [{"measurement": "effect of the metal on the A-beta1-42 CD spectrum", "setting": "A-beta1-42 peptide [3]", "result": "minor or no effects"}]}
{"compound": "[Fe+3]", "note": "[iron (III)]", "values": [{"measurement": "effect of the metal on the A-beta1-42 CD spectrum", "setting": "A-beta1-42 peptide [3]", "result": "strong effects"}]}
{"compound": "CC[Si](O)(CC)CC", "note": "[TES, triethylsilanol]", "values": [{"measurement": "Restore original spectra?", "setting": "NF-M17", "result": "No"}, {"measurement": "restoration of the CD spectrum of NF-M17/aluminum to its original shape", "setting": "NF-M17", "result": "did not restore"}, {"measurement": "restoration of the original CD spectrum of A-beta1-42 peptide after exposure to aluminum", "setting": "A-beta1-42 peptide [1]", "result": "at least partially restored"}]}
{"compound": "C[Si](Cl)(Cl)CC[Si](C)(Cl)Cl", "note": "[compound 1042, 1,2-(methyldichlorosilyl)ethane]", "values": [{"measurement": "Total Extracted", "setting": "A-beta antigen; Braak V tissue, 1 h at room temperature, corrected for volume dilution", "result": 14.0, "unit": "fmol"}, {"measurement": "share of total antigen released to the extract", "setting": "A-beta antigen; based on the intensity from urea-solubilized tissues", "result": "approximately 12%"}, {"measurement": "crossing of the epithelial barrier in the Caco-2 model", "setting": "Caco-2 cells [5]; Caco-2", "result": "crossed the epithelial barrier efficiently"}, {"measurement": "permeation of Caco-2 cells relative to mannitol", "setting": "Caco-2 cells [5]; Caco-2", "result": "at least four times greater"}, {"measurement": "Permeation Coefficient (cm/sec) Mean ± SD, where applicable", "setting": "Caco-2 cells [5]; Caco-2, 60 min, 20 mM", "result": "2.5 × 10^−5 (n = 2) cm/sec"}]}
{"compound": "CN(C)[Si](N(C)C)(N(C)C)N(C)C", "note": "[tetrakis, tetrakis(dimethylamino)silane]", "values": [{"measurement": "restoration of the original CD spectrum of A-beta1-42 peptide after exposure to aluminum", "setting": "A-beta1-42 peptide [1]", "result": "at least partially restored"}]}
{"compound": "O.O.O.O.O.O.O.O.O.O=[Si]([O-])[O-].[Na+].[Na+]", "note": "[sodium metasilicate, sodium metasilicate nonahydrate, reference compound]", "values": [{"measurement": "equivalents at which the CD curve began to return / showed some return to its original shape", "setting": "NF-M17; NF-M17 with 8 equivalents of aluminum", "result": "about 32 equivalents"}]}
{"compound": "dichlorosilacyclobutane [DCSCB]", "values": [{"measurement": "restoration of the original CD spectrum of A-beta1-42 peptide after exposure to aluminum", "setting": "A-beta1-42 peptide [1]", "result": "at least partially restored"}, {"measurement": "transport across Caco-2 cells", "setting": "Caco-2 cells [2]", "result": "significant amount of transport"}]}
{"compound": "CC(C)(C)[Si](C)(C)O", "note": "[TBDMS, tert-butyldimethylsilanol]", "values": [{"measurement": "Restore original spectra?", "setting": "NF-M17", "result": "No"}, {"measurement": "restoration of the CD spectrum of NF-M17/aluminum to its original shape", "setting": "NF-M17", "result": "did not restore"}]}
